Results from patent US20200155607A1, “Enriched Cellular Compositions and Therapeutic Use” (Abraham J and Phyllis Katz Cord Blood Foundation, priority 2017, published 2020).

Test system: human dermal fibroblast
Assay: Fibroblast proliferation by MTT assay
Assay type: cell-based
Settings: mitomycin c 10 or 25 μg/ml for 30 or 60 min; MTT at 17 hrs
Experimental: The results from two different studies investigating the effect of mitomycin c on human dermal fibroblast proliferation are shown in FIGS. 5A-5B. Fibroblast cells were plated out in complete media and then treated with mitomycin c (10 μg/ml or 25 μg/ml) for 30 or 60 min. Mitomcyin c was washed out and starvation media was added. Positive controls are 10% FBS and FGF (25 ng/ml). The ODs from the blank wells were subtracted out. Proliferation was measured by MTT assay at 17 hrs.

For `CO[C@@]12[C@H](COC(N)=O)C3=C(C(=O)C(C)=C(N)C3=O)N1C[C@@H]1N[C@@H]12` [Mitomycin c, mitomycin c], the “fibroblast proliferation (MTT)” value was “appears to inhibit fibroblast proliferation”.
